# Experimental data reported in patent US12508300B2, “Acylated GLP-1 derivative” (Sciwind Biosciences Co., Ltd., priority 2019, dated 2025).
# Biological target: T1, trypsin (Bos taurus, UniProt P00760)
# T1 construct: purchased Sigma T8003
# T1 sequence (P00760 24-246): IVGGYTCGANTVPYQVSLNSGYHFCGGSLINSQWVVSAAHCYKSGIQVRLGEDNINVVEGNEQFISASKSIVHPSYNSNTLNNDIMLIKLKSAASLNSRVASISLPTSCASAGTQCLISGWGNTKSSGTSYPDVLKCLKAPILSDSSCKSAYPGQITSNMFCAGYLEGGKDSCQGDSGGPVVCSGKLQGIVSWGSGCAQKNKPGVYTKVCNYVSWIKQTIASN
# Assay: Trypsin degradation experiments
# Type: in vitro ADME
# Protocol: Pepsin (3200-4500 U/mg protein, from Sigma, catalog number: P6887), trypsin (approximately […] protein, from Sigma, catalog number: T8003).
# B: Reaction buffer of trypsin: three 20 mM citric acid-phosphate buffers with different pH (4.0, 6.8, and 8.0) are prepared, then adding 0.005% Tween 20 and 0.001% BSA to prepare a reaction buffer of trypsin.
# D: Simulated intestinal fluid containing trypsin (SIF): obtained by taking 0.0684 g of potassium dihydrogen phosphate, adding 2.5 ml of water to dissolve it, adding 0.77 ml of 0.2M sodium hydroxide solution and 5 ml of water, and then adding and dissolving 0.1001 g of trypsin; the pH is measured as 6.82, then diluting by adding water to 10 ml.
# An appropriate amount of the stock solution of the test sample is taken respectively, then diluting it to 0.06 mg/ml with reaction buffers of trypsin with different pH; each group of reaction solution is divided into 1 ml/tube, a total of 7 tubes, then mixing well and incubating in a 37° C. water bath for 30 min. […]
# HPLC assay is performed with samples from the enzyme degradation experiment. The peak area of the main peak of the sample without enzyme reaction at 0 point (recorded as −5 min) is used as the basal peak area, and the remaining percentage of the peak area of the main peak at different time points after enzyme addition is calculated.
smiles,measurement,setting,value
"CC[C@H](C)[C@H](NC(=O)[C@H](Cc1ccccc1)NC(=O)[C@H](CCC(=O)O)NC(=O)[C@H](CCCCNC(=O)COCCOCCNC(=O)COCCOCCNC(=O)CC[C@H](NC(=O)CCCCCCCCCCCCCCCCC(=O)O)C(=O)O)NC(=O)[C@H](C)NC(=O)[C@H](C)NC(=O)[C@H](CCC(N)=O)NC(=O)CNC(=O)[C@H](CCC(=O)O)NC(=O)[C@H](CC(C)C)NC(=O)[C@H](Cc1ccc(O)cc1)NC(=O)[C@H](CO)NC(=O)[C@H](CO)NC(=O)[C@@H](NC(=O)[C@H](CC(=O)O)NC(=O)[C@H](CO)NC(=O)[C@@H](NC(=O)[C@H](Cc1ccccc1)NC(=O)[C@@H](NC(=O)CNC(=O)[C@H](CCC(=O)O)NC(=O)C(C)(C)NC(=O)[C@@H](N)Cc1cnc[nH]1)[C@@H](C)O)[C@@H](C)O)C(C)C)C(=O)N[C@@H](C)C(=O)N[C@@H](Cc1c[nH]c2ccccc12)C(=O)N[C@@H](CC(C)C)C(=O)N[C@H](C(=O)N[C@@H](CCCNC(=N)N)C(=O)NCC(=O)N[C@@H](CCCNC(=N)N)C(=O)NCC(=O)O)C(C)C [Semaglutide, N-ε^26-[2-(2-[2-(2-[2-(2[4-(17-carboxyheptadecanoylamino)-4(s)-carboxybutyrylamino]ethoxy)ethoxy]acetylamino)ethoxy]ethoxy)acetyl][Aib^8, Arg^34]GLP-1-(7-37) peptide]",ability against trypsin degradation (in words),pH4.0,show the ability against trypsin degradation
same,degradation rate by trypsin (in words),"pH6.8 and 8.0, n=4, FIG. 6",basically the same
